From patent US8372831B2, “Isoxazoline linked pyrrolo[2,1-c][1,4]benzodiazepine hybrids as potential anticancer agents and the process for preparation thereof” (Council of Scientific & Industrial Research, priority 2008, dated 2013)

Columns and labels:
Type in all cases: cell-based, human
SNB-75 = assay: NCI SRB cytotoxicity, SNB-75 (CNS); conditions: 48 hrs exposure
Method: (§1) Biological Activity: The in vitro biological activity studies were carried out at the National Cancer Institute, Maryland, USA.
(§2) The C8-linked isoxazoline-PBD hybrids have been tested against sixty human tumour cell lines derived from nine cancer types (leukemia, non-small cell lung cancer, colon cancer, CNS cancer, melanoma, ovarian cancer, renal cancer, prostate cancer and breast cancer) as per NCI protocol. For each compound, dose response curves for individual cell lines have been measured at a minimum of five concentrations at 10 fold dilutions. A protocol of 48 hrs continuous drug exposure has been used, and a sulforhodamine B (SRB) protein assay was used to estimate cell viability or growth. The concentration for 50% cell growth inhibition (GI50), total cell growth inhibition (TGI, 0% growth) and 50% cell death (LC50, […]) compared with the control has been calculated (FIG. 2).
(§3) Compound 5b and 9b have been evaluated for in vitro cytotoxicity in sixty cell lines from nine human cancer types of lung (Hop-62, NCI-H226, NCI-H522), leukemia (K-562, SR), colon (HCT-116, HCT-15, HCC-2998), CNS(SF-539), melanoma (SK-MEL-5, UACC-62, M14), ovarian (IGROV1), renal (A498), prostate (PC3) breast (BT-549, MDA-MB-435, HS578T) origin. The results are expressed as percent of cell growth determined relative to that of untreated control cells (Table 1).

SF-268 = assay: NCI SRB cytotoxicity, SF-268 (CNS); conditions: 48 hrs exposure
Method: as §1, §2, §3

DU-145 = assay: NCI SRB cytotoxicity, DU-145 (prostate); conditions: 48 hrs exposure
Method: as §1, §2, §3

UACC-62 = assay: NCI SRB cytotoxicity, UACC-62 (melanoma)
Method: as §1, §2, §3

EKVX = assay: NCI SRB cytotoxicity, EKVX (non-small cell lung); conditions: Non-smallcell lung, 48 hrs exposure
Method: as §1, §2, §3

HL-60(TB) = assay: NCI SRB cytotoxicity, HL-60(TB) (leukemia); conditions: 48 hrs exposure
Method: as §1, §2, §3

UO-31 = assay: NCI SRB cytotoxicity, UO-31 (renal); conditions: 48 hrs exposure
Method: as §1, §2, §3

UACC-257 = assay: NCI SRB cytotoxicity, UACC-257 (melanoma); conditions: 48 hrs exposure
Method: as §1, §2, §3

SR = assay: NCI SRB cytotoxicity, SR (leukemia)
Method: as §1, §2, §3

OVCAR-8 = assay: NCI SRB cytotoxicity, OVCAR-8 (ovarian); conditions: 48 hrs exposure
Method: as §1, §2, §3

Prostate = assay: NCI SRB cytotoxicity, prostate cancer panel; conditions: average of six to eight different cancer cell lines; for Log10 LC50: 50% lethality
Method: as §1, §2, §3

ACHN = assay: NCI SRB cytotoxicity, ACHN (renal); conditions: 48 hrs exposure
Method: as §1, §2, §3

SK-OV-3 = assay: NCI SRB cytotoxicity, SK-OV-3 (ovarian); conditions: 48 hrs exposure
Method: as §1, §2, §3

NCI-H322M = assay: NCI SRB cytotoxicity, NCI-H322M (non-small cell lung); conditions: Non-smallcell lung, 48 hrs exposure
Method: as §1, §2, §3

NCI-H522 = assay: NCI SRB cytotoxicity, NCI-H522 (non-small cell lung)
Method: as §1, §2, §3

Ovarian = assay: NCI SRB cytotoxicity, ovarian cancer panel; conditions: average of six to eight different cancer cell lines; for Log10 LC50: 50% lethality
Method: as §1, §2, §3

RPMI-8226 = assay: NCI SRB cytotoxicity, RPMI-8226 (leukemia); conditions: 48 hrs exposure
Method: as §1, §2, §3

HOP-92 = assay: NCI SRB cytotoxicity, HOP-92 (non-small cell lung); conditions: HOP-92, Non-smallcell lung; 48 hrs exposure
Method: as §1, §2, §3

OVCAR-3 = assay: NCI SRB cytotoxicity, OVCAR-3 (ovarian); conditions: 48 hrs exposure
Method: as §1, §2, §3

CNS = assay: NCI SRB cytotoxicity, CNS cancer panel; conditions: average of six to eight different cancer cell lines; for Log10 LC50: 50% lethality
Method: as §1, §2, §3

HCT-15 = assay: NCI SRB cytotoxicity, HCT-15 (colon)
Method: as §1, §2, §3

K-562 = assay: NCI SRB cytotoxicity, K-562 (leukemia)
Method: as §1, §2, §3

SF-539 = assay: NCI SRB cytotoxicity, SF-539 (CNS)
Method: as §1, §2, §3

[1] = tested on: Non small cell lung cancer; assay: NCI SRB cytotoxicity, non-small cell lung cancer panel; conditions: average of six to eight different cancer cell lines; for Log10 LC50: 50% lethality
Method: as §1, §2, §3

MDA-MB-468 = assay: NCI SRB cytotoxicity, MDA-MB-468 (breast); conditions: 48 hrs exposure
Method: as §1, §2, §3

SW-620 = assay: NCI SRB cytotoxicity, SW-620 (colon); conditions: 48 hrs exposure
Method: as §1, §2, §3

SNB-19 = assay: NCI SRB cytotoxicity, SNB-19 (CNS); conditions: 48 hrs exposure
Method: as §1, §2, §3

M14 = assay: NCI SRB cytotoxicity, M14 (melanoma)
Method: as §1, §2, §3

PC-3 = assay: NCI SRB cytotoxicity, PC-3 (prostate)
Method: as §1, §2, §3

SK-MEL-5 = assay: NCI SRB cytotoxicity, SK-MEL-5 (melanoma)
Method: as §1, §2, §3

BT-549 = assay: NCI SRB cytotoxicity, BT-549 (breast)
Method: as §1, §2, §3

Leukemia = assay: NCI SRB cytotoxicity, leukemia panel; conditions: average of six to eight different cancer cell lines; for Log10 LC50: 50% lethality
Method: as §1, §2, §3

HCC-2998 = assay: NCI SRB cytotoxicity, HCC-2998 (colon)
Method: as §1, §2, §3

RXF 393 = assay: NCI SRB cytotoxicity, RXF 393 (renal); conditions: 48 hrs exposure
Method: as §1, §2, §3

HCT-116 = assay: NCI SRB cytotoxicity, HCT-116 (colon)
Method: as §1, §2, §3

NCI-H226 = assay: NCI SRB cytotoxicity, NCI-H226 (non-small cell lung)
Method: as §1, §2, §3

MALME-3M = assay: NCI SRB cytotoxicity, MALME-3M (melanoma); conditions: 48 hrs exposure
Method: as §1, §2, §3

[2] = UACC-62, Melanoma, 48 hrs exposure
[3] = NCI-H522, Non-smallcell lung, 48 hrs exposure
[4] = K-562, Leukemia, 48 hrs exposure
[5] = PC-3, Prostate, 48 hrs exposure
[6] = SK-MEL-5, Melanoma, 48 hrs exposure
[7] = BT-549, Breast, 48 hrs exposure
[8] = HCC-2998, Colon, 48 hrs exposure
[9] = HCT-116, Colon, 48 hrs exposure
[10] = NCI-H226, Non-smallcell lung, 48 hrs exposure

Work on `COc1cc(C2=NOC(c3cc(OC)c(OC)c(OC)c3)C2)ccc1OCCCCOc1cc2c(cc1OC)C(=O)N1CCC[C@H]1C=N2` (stereo partly drawn) [Compound 5b, (11aS)-7-(methyloxy)-8-(4-[(2-(methyloxy)-4-5-[3,4,5-tri(methyloxy)phenyl]-4,5-dihydro-3-isoxazolylphenyl)oxy]butyloxy)-2,3,5,11a-tetrahydro-1H benzo[e]pyrrolo[1,2-a][1,4]diazepin-5-one] yielded a GI50 (SNB-75) of 320 nM, a GI50 (SF-268) of 340 nM and a GI50 (DU-145) of 320 nM. The GI50 (UACC-62; [2]) was 160 nM, the GI50 (UACC-62; melanoma UACC-62) was 160 nM and the GI50 (EKVX) was 460 nM. It also gave a GI50 (HL-60(TB)) of 180 nM, a GI50 (UO-31) of 290 nM and a GI50 (UACC-257) of 270 nM. For the same compound, the GI50 (SR; SR, Leukemia, 48 hrs exposure) was 140 nM, the GI50 (SR; leukemia SR) was 140 nM and the GI50 (OVCAR-8) was 370 nM. For the same compound, the “Log10 LC50” value (Prostate) was −4.82 mol/L, the Log10GI50 (Prostate) was −6.49 mol/L and the GI50 (ACHN) was 280 nM. The GI50 (SK-OV-3) was 470 nM, the GI50 (NCI-H322M) was 340 nM and the GI50 (NCI-H522; [3]) was 120 nM. For the same compound, the GI50 (NCI-H522; non-small cell lung cancer NCI-H522) was 120 nM, the “Log10 LC50” value (Ovarian) was −4.84 mol/L and the Log10GI50 (Ovarian) was −6.44 mol/L. For the same compound, the GI50 (RPMI-8226) was 240 nM, the GI50 (HOP-92) was 310 nM and the GI50 (OVCAR-3) was 270 nM. The “Log10 LC50” value (CNS) was −5.18 mol/L, the Log10GI50 (CNS) was −6.51 mol/L and the GI50 (HCT-15; HCT-15, Colon, 48 hrs exposure) was 180 nM. For the same compound, the GI50 (HCT-15; colon cancer HCT-15) was 190 nM, the GI50 (K-562; [4]) was 120 nM and the GI50 (K-562; leukemia K-562) was 120 nM. For the same compound, the GI50 (SF-539; CNS SF-539) was 220 nM, the GI50 (SF-539; SF-539, CNS, 48 hrs exposure) was 220 nM and the “Log10 LC50” value [1] was −4.78 mol/L. It also gave a Log10GI50 [1] of −6.59 mol/L, a GI50 (MDA-MB-468) of 220 nM and a GI50 (SW-620) of 230 nM. For the same compound, the GI50 (SNB-19) was 340 nM, the GI50 (M14; M14, Melanoma, 48 hrs exposure) was 180 nM and the GI50 (M14; melanoma M14) was 180 nM. It also gave a GI50 (PC-3; [5]) of 320 nM, a GI50 (PC-3; prostate PC-3) of 320 nM and a GI50 (SK-MEL-5; [6]) of 160 nM. It also gave a GI50 (SK-MEL-5; melanoma SK-MEL-5) of 200 nM, a GI50 (BT-549; [7]) of 90 nM and a GI50 (BT-549; breast BT-549) of 90 nM. The “Log10 LC50” value (Leukemia) was −4.18 mol/L, the Log10GI50 (Leukemia) was −6.76 mol/L and the GI50 (HCC-2998; [8]) was 190 nM. It also gave a GI50 (HCC-2998; colon cancer HCC-2998) of 190 nM, a GI50 (RXF 393) of 210 nM and a GI50 (HCT-116; [9]) of 180 nM. For the same compound, the GI50 (HCT-116; colon cancer HCT-116) was 180 nM, the GI50 (NCI-H226; [10]) was 170 nM and the GI50 (NCI-H226; non-small cell lung cancer NCI-H226) was 310 nM. The GI50 (MALME-3M) was 210 nM.
`COc1ccc(C2CC(c3ccc(OC)c(OC)c3OC)=NO2)cc1OCCCCOc1cc2c(cc1OC)C(=O)N1CCC[C@H]1C=N2` (stereo partly drawn) [Compound 9b, (11aS)-7-(methyloxy)-8-(4-[(2-(methyloxy)-5-3-[2,3,4-tri(methyloxy)phenyl]-4,5-dihydro-5-isoxazolylphenyl)oxy]butyloxy)-2,3,5,11a-tetrahydro-1H-benzo[e]pyrrolo[1,2-a][1,4]diazepin-5-one] showed a GI50 (SNB-75) of 1710 nM, a GI50 (SF-268) of 1890 nM and a GI50 (DU-145) of 2480 nM. For the same compound, the GI50 (UACC-62; [2]) was 1520 nM, the GI50 (EKVX) was 3680 nM and the GI50 (HL-60(TB)) was 1900 nM. It also gave a GI50 (UO-31) of 2090 nM, a GI50 (UACC-257) of 2330 nM and a GI50 (SR; SR, Leukemia, 48 hrs exposure) of 1120 nM. For the same compound, the GI50 (OVCAR-8) was 2550 nM, the “Log10 LC50” value (Prostate) was −4.54 mol/L and the Log10GI50 (Prostate) was −5.92 mol/L. The GI50 (ACHN) was 2410 nM, the GI50 (SK-OV-3) was 3370 nM and the GI50 (NCI-H322M) was 3460 nM. For the same compound, the GI50 (NCI-H522; [3]) was 610 nM, the “Log10 LC50” value (Ovarian) was −4.48 mol/L and the Log10GI50 (Ovarian) was −5.61 mol/L. It also gave a GI50 (RPMI-8226) of 1430 nM, a GI50 (HOP-92) of 2470 nM and a GI50 (OVCAR-3) of 1940 nM. For the same compound, the “Log10 LC50” value (CNS) was −5.05 mol/L, the Log10GI50 (CNS) was −5.74 mol/L and the GI50 (HCT-15; HCT-15, Colon, 48 hrs exposure) was 2270 nM. The GI50 (K-562; [4]) was 1260 nM, the GI50 (SF-539; SF-539, CNS, 48 hrs exposure) was 1800 nM and the “Log10 LC50” value [1] was −4.73 mol/L. It also gave a Log10GI50 [1] of −5.70 mol/L, a GI50 (MDA-MB-468) of 1340 nM and a GI50 (SW-620) of 1550 nM. It also gave a GI50 (SNB-19) of 1960 nM, a GI50 (M14; M14, Melanoma, 48 hrs exposure) of 1730 nM and a GI50 (PC-3; [5]) of 580 nM. For the same compound, the GI50 (SK-MEL-5; [6]) was 1470 nM, the GI50 (BT-549; [7]) was 1230 nM and the “Log10 LC50” value (Leukemia) was −4.37 mol/L. The Log10GI50 (Leukemia) was −5.83 mol/L, the GI50 (HCC-2998; [8]) was 1580 nM and the GI50 (RXF 393) was 1390 nM. The GI50 (HCT-116; [9]) was 1700 nM, the GI50 (NCI-H226; [10]) was 1670 nM and the GI50 (MALME-3M) was 2880 nM.
